Source: US20230219986A1, “NOVEL AMINOPYRIMIDINE EGFR INHIBITOR” (QILU PHARMACEUTICAL CO., LTD., priority 2020, published 2023)
Where two headings read alike, the source gives them in different places. Marks after values point to notes of the source that are not given here.

Legend:
[1] = target: Ba/F3 L858R/T790M/C797S EGFR triple mutant cell line (Homo sapiens, UniProt P00533, T790M/C797S/L858R, cells depend on it); assay: Cell proliferation inhibition experiment (CellTiter-Glo), Ba/F3 L858R/T790M/C797S; assay type: cell-based; conditions: 72 hours, Cell Titer-Glo, read-out: Ba/F3 (L858R/T790M/C797S) IC50
Ba/F3 L858R/T790M/C797S EGFR triple mutant cell line, sequence (P00533 whole entry T790M/C797S/L858R): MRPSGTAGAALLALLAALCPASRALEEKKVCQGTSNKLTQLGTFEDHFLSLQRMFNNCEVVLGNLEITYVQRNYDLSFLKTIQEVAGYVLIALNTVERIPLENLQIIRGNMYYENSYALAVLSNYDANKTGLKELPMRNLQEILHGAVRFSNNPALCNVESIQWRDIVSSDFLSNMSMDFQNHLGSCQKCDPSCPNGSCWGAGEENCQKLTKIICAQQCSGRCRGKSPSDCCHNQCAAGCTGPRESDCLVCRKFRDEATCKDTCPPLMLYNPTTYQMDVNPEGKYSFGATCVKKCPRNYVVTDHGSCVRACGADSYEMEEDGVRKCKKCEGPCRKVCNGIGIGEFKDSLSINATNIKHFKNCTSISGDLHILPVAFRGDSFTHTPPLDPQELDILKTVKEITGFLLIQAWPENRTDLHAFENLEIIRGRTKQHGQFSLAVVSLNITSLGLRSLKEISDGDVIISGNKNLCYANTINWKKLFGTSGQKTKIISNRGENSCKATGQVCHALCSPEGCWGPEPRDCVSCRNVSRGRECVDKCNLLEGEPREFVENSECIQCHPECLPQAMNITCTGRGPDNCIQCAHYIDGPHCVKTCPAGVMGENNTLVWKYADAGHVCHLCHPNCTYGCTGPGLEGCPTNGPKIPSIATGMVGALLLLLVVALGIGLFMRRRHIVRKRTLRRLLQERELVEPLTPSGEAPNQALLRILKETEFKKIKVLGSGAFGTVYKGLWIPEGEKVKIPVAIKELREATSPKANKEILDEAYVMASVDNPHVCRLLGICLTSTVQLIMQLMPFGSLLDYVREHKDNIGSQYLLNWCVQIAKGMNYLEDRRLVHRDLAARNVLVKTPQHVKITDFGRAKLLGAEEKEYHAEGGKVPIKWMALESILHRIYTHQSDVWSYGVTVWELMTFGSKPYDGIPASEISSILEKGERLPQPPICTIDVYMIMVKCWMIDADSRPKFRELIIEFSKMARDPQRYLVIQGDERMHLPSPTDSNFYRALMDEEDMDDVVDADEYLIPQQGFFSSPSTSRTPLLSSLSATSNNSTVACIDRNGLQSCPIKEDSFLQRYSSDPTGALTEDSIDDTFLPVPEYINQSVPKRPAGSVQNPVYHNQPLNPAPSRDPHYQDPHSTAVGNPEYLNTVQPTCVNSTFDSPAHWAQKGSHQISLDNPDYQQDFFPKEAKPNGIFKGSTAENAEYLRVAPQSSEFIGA

[2] = target: T1, L858R/T790M/C797S triple mutant EGFR (Homo sapiens, UniProt P00533, C797S/L858R/T790M); assay: Enzymology experiment in vitro (HTRF/FRET kinase activity), L858R/T790M/C797S triple mutant EGFR; assay type: biochemical; conditions: HTRF KinEASE-TK
T1 construct: purchased Signalchem
T1 sequence (P00533 25-1210 T790M/C797S/L858R): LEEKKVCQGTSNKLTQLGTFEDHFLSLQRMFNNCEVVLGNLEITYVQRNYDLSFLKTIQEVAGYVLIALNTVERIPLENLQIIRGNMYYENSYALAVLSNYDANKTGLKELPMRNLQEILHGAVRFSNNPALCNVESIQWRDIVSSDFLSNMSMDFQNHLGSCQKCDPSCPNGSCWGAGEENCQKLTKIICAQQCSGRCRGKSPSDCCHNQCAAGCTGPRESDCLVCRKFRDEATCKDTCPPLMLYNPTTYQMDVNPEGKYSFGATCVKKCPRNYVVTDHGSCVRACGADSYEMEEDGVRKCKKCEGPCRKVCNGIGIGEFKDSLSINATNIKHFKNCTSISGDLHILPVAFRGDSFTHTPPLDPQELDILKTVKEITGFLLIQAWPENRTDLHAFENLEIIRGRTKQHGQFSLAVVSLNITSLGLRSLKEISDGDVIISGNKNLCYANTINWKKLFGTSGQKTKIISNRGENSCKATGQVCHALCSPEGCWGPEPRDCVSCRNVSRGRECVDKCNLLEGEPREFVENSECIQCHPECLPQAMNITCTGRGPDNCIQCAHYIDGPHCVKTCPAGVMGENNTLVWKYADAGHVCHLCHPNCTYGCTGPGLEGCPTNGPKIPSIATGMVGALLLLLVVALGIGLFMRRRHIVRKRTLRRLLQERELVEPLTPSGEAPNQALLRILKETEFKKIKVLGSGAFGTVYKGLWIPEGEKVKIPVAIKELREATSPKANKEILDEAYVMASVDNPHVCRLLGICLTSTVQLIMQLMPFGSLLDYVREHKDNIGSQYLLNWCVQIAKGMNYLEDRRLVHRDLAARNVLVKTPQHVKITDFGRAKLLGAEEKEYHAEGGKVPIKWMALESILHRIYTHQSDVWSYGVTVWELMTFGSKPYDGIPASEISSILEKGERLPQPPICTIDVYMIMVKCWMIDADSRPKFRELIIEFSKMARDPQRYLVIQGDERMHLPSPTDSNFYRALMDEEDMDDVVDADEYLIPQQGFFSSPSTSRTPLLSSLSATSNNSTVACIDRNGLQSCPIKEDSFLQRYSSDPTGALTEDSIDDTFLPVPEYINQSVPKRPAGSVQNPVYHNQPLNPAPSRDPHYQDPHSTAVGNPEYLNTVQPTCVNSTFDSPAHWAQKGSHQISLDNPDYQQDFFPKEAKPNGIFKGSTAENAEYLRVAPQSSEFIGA
Summary of the method: (§1)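 HTRF KinEASE-TK format: EGFR enzyme preincubated with compound 10 min at room temperature, then peptide substrate plus ATP added for 40 min. Detection with EDTA, XL665-streptavidin and Eu³⁺-labeled antibody for 1 h.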

[3] = target: Ba/F3 De119/T790M/C797S EGFR triple mutant cell line (Homo sapiens, UniProt P00533, T790M/C797S, cells depend on it, form not given); assay: Cell proliferation inhibition experiment (CellTiter-Glo), Ba/F3 De119/T790M/C797S; assay type: cell-based; conditions: Ba/F3 Del19/T790M/C797S EGFR triple mutant cells, 72 hours, Cell Titer-Glo; read-out: Ba/F3 (Del19/T790M/C797S) IC50
Ba/F3 De119/T790M/C797S EGFR triple mutant cell line, sequence (P00533 with tags, fused parts or gaps DEL746-750/T790M/C797S, form open): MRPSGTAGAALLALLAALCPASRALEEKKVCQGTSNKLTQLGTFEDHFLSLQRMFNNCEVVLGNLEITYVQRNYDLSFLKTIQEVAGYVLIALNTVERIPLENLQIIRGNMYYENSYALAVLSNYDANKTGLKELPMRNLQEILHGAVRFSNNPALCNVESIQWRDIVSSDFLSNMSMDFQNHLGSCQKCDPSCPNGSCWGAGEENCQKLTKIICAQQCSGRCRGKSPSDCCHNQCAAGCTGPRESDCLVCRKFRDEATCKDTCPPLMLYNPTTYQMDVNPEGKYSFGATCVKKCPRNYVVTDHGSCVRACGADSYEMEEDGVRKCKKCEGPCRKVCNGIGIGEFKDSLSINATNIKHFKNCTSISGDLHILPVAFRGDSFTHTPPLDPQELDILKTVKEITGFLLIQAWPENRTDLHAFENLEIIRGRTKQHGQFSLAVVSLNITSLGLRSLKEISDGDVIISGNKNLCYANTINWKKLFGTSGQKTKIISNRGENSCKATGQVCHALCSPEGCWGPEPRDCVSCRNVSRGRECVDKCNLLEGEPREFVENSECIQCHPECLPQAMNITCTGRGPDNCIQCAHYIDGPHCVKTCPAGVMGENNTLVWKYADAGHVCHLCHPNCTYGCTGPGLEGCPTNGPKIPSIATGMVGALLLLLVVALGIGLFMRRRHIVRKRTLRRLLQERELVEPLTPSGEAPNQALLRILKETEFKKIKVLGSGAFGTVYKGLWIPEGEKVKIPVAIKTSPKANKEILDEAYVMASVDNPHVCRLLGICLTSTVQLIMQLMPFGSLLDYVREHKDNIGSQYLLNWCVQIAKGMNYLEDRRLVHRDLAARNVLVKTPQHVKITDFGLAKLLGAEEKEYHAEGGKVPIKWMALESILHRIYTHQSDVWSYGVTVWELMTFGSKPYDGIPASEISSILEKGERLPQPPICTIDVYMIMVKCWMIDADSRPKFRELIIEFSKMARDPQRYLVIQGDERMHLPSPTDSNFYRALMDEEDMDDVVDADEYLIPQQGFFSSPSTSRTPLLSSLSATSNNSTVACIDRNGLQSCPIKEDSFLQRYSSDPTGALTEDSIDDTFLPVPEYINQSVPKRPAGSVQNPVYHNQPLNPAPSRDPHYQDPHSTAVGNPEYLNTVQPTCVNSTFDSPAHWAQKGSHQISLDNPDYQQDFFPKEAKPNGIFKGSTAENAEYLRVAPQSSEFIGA

[4] = test system: EGFR wild-type cell line A431; assay: Cell proliferation inhibition experiment (CellTiter-Glo), A431; assay type: cell-based; conditions: A431 cells, Cell Titer-Glo, read-out: A431 EGFR WT IC50
Summary of the method: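 A431 cells, 800 per well, were cultured 24 h and then exposed to serially diluted compound (0.1% DMSO final) for 72 h at 37° C., 5% CO2.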

wild-type EGFR = target: T2, wild-type EGFR (Homo sapiens, UniProt P00533); assay: Enzymology experiment in vitro (HTRF/FRET kinase activity), wild-type EGFR; assay type: biochemical; conditions: HTRF KinEASE-TK
T2 construct: purchased Signalchem
T2 sequence (P00533 25-1210): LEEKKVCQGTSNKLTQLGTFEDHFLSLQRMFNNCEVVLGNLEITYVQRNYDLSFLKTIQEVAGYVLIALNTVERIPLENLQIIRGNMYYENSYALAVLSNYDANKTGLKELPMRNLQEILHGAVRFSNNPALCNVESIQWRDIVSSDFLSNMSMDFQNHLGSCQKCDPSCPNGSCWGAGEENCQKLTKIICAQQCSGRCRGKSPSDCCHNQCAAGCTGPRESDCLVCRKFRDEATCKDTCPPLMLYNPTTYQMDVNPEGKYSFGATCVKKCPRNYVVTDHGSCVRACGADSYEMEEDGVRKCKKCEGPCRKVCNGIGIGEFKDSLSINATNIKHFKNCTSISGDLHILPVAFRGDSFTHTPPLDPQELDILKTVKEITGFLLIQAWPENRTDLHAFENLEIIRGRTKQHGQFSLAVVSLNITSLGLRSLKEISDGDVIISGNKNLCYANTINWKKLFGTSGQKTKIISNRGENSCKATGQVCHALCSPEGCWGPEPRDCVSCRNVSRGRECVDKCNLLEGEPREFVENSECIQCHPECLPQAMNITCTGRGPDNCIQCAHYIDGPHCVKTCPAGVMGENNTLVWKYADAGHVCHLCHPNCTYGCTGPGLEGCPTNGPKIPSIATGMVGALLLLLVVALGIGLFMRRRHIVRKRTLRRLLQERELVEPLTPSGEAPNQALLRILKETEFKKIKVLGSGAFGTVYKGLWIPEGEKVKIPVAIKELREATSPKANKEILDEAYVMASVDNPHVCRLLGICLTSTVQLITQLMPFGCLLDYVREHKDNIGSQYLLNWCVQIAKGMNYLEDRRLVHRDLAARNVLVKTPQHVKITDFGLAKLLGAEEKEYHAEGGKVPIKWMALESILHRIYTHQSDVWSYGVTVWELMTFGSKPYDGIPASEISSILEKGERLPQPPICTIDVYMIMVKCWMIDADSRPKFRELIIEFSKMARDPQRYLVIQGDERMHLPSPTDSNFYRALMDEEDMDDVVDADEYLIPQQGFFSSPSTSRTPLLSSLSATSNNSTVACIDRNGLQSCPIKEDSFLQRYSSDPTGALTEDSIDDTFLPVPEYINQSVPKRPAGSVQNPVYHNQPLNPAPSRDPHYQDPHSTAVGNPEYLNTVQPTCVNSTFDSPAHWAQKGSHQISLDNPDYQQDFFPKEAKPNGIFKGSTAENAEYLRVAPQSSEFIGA
Summary of the method: as §1

[5] = test system: PC9 (De119/T790M/C797S) nude mice xenograft model; assay: In vivo efficacy research experiment A (compound 242); set-up: species or system BALB/c-nu mice; conditions: for Tumor volume (mm^3): mean ± standard error
Experimental: To evaluate the antitumor activity and toxic side effects of compound 242 orally administered for 21 days in PC9 (De119/T790M/C797S) nude mice xenograft model.
BALB/c-nu mice, female, SPF grade, purchased from Beijing Vital River Laboratory Animal Technology Co., Ltd.
PC9 (De119/T790M/C797S) cells, constructed by Qilu Pharmaceutical Co., Ltd.
PC9 (De119/T790M/C797S) cells were cultured in RPMI 1640 medium containing 10% FBS at 37° C. in a 5% carbon dioxide incubator; cells in exponential growth phase were collected and inoculated.
Under sterile conditions, PC9 (De119/T790M/C797S) cell suspension cultured in vitro was taken, the cell concentration was adjusted to 5×10^7 cells /mL after centrifugation, and subcutaneously inoculated under the right armpit of mice (0.1 mL/ mouse). The day of inoculation was set as day 0.
a, When the average tumor volume was about 180 mm^3, 24 mice with moderate tumor volume were selected and randomly divided into 3 groups according to the tumor volume: G1: solvent control group, G2: compound 242 (25 mg/kg) and G3: compound 242 (75/50 mg/kg), 8 mice/group.
b, After animals were grouped, administration was started, and the administration volume was 10 mL/kg, administered orally (po); administered by weight once a day for 21 consecutive days; tumor diameter was measured twice a week.
c, Tumor volume (TV): the tumor volume was measured twice a week to observe the volume change and growth rate of the tumor. Tumor volume V=½×a×b^2, where a and b represent the long and short diameters of the tumor, respectively. The growth inhibition effect of the compounds on tumor tissue was evaluated by tumor growth inhibition rate TGI (%). […] The data of the administration group and the negative control group were taken on the same day.
d, During the experiment, the living conditions of the mice, including appearance signs, general behavior, mental state, food intake, respiratory state, feces and urine characteristics, local injection site and other toxicity manifestations, were closely observed.
e, After the experiment reached the end point, the mice were euthanized, and the animal carcasses were frozen in a freezer and handed over to a qualified medical waste disposal unit for disposal.

[6] = read-out: EGFR (L858R/T790M/C797S) IC50
[7] = 25 mg/kg po once a day for 21 days
[8] = 75 (D1-D6), 50 (D7-D21) mg/kg po once a day

| SMILES | GI50 [1] | IC50 [2, 6] | GI50 [3] | IC50 ([4]; Homo sapiens, A-431, 72 h) | IC50 (wild-type EGFR; read-out: EGFR (WT) IC50) | also measured |
| --- | --- | --- | --- | --- | --- | --- |
| COc1cc(N2CCC3(CCN(CCF)CC3)CC2)c(-c2cnn(C)c2F)cc1Nc1ncc(Br)c(Nc2ccc3nccnc3c2P(C)(C)=O)n1 [compound 231] | 1.12 nM | 0.37 nM | 1.08 nM | 40.1 nM | 1.12 nM |  |
| COCCN1CCN(C2CCN(c3cc(OC)c(Nc4ncc(Br)c(Nc5ccc6nccnc6c5P(C)(C)=S)n4)cc3-c3cnn(C)c3)CC2)CC1 [compound 232] | 8.59 nM |  | 3.16 nM |  |  | IC50 ([2]; EGFR (L858R/T790M/C797S) IC50(nM)): 0.58 nM; IC50 ([4]; Homo sapiens, A-431, 72 hours): 126 nM; IC50 (wild-type EGFR; EGFR (WT) IC50(nM)): 4.11 nM |
| COc1cc(N2CCC3(CCN(CCF)CC3)CC2)c(-c2cnn(C)c2)cc1Nc1ncc(Cl)c(Nc2ccc3nccnc3c2P(C)(C)=O)n1 [compound 233] | 3.54 nM | 0.26 nM | 1.74 nM | 79.5 nM | 2.49 nM |  |
| COc1cc(N2CCN(CC3CC3)CC2)c(-c2cnn(C)c2)cc1Nc1ncc(Br)c(Nc2ccc3nccnc3c2P(C)(C)=O)n1 [compound 235] | 24.8 nM | 0.27 nM | 8.53 nM |  | 10.5 nM | IC50 ([4]; 72 hours): 89 nM |
| COc1cc(N2CCN(CC3CC3)CC2)c(-c2cnn(C)c2)cc1Nc1ncc(Br)c(Nc2ccc3cncnc3c2P(C)(C)=O)n1 [compound 236] | 12.7 nM | 0.21 nM | 5.45 nM | 91.5 nM | 11 nM |  |
| COc1cc(N2CCN(CC3(C#N)CC3)CC2)c(-c2cnn(C)c2)cc1Nc1ncc(Br)c(Nc2ccc3nccnc3c2P(C)(C)=O)n1 [compound 237, 1-((4-(4-((5-Bromo-4-((5-(dimethylphosphoryl)quinoxalin-6-yl)amino)pyrimidin-2-yl)amino)-5-methoxy-2-(1-methyl-1H-pyrazol-4-yl)phenyl)piperazin-1-yl)methyl)cyclopropane-1-carbonitrile] | 3.05 nM | 0.52 nM | 1.26 nM | 129 nM | 5.2 nM |  |
| COc1cc(N2CCC3(CCN(CCF)CC3)CC2)c(-c2cnn(C)c2)cc1Nc1ncc(Br)c(Nc2ccc3ncccc3c2P(C)(C)=O)n1 [compound 238] | 3.59 nM | 0.3 nM | 1.83 nM | 61.9 nM | 3.02 nM |  |
| COc1cc(N2CCC(C)(OC)CC2)c(-c2cnn(C)c2)cc1Nc1ncc(Cl)c(Nc2ccc3nccnc3c2P(C)(C)=O)n1 [compound 239] | 4.61 nM | 1.6 nM | 2.1 nM | 141 nM | 7.57 nM |  |
| COc1cc(N2CCC(C)(OC)CC2)c(-c2cnn(C)c2)cc1Nc1ncc(Br)c(Nc2ccccc2P(C)(C)=O)n1 [compound 240] | 19.2 nM | 0.51 nM | 8.2 nM | 304 nM | 29.9 nM |  |
| COc1cc(N2CCC(C)(OC)CC2)c(-c2c[nH]n(C)c2=O)cc1Nc1ncc(Br)c(Nc2ccc3nccnc3c2P(C)(C)=O)n1 [compound 241] | 12.3 nM | 0.13 nM | 2.92 nM | 182 nM | 30.1 nM |  |
| COc1cc(N2CCC3(CCN(CC4(F)CC4)CC3)CC2)c(-c2cnn(C)c2)cc1Nc1ncc(Br)c(Nc2ccc3nccnc3c2P(C)(C)=O)n1 [compound 242, (6-((5-Bromo-2-((4-(9-((1-fluorocyclopropyl)methyl)-3,9-diazaspiro[5.5]undecan-3yl)-2-methoxy-5-(1-methyl-1H-pyrazol-4-yl)phenyl)amino)pyrimidin-4-yl)amino)quinoxalin-5-yl)dimethylphosphine oxide] | 3.07 nM | 0.4 nM | 1.36 nM | 75.7 nM | 2.4 nM | tolerability of mice ([5]; 25 mg/kg and 50 mg/kg doses): well tolerated; TGI (%) [5, 7]: 102%; Weight change (%) [5, 7]: 2.4%; Tumor volume (mm^3) [5, 7]: 139.8 ± 13.7** mm^3; tumor growth inhibition (in words) ([5]; 25, 75/50 mg/kg): significantly inhibit tumor growth; TGI (%) [5, 8]: 105%; Weight change (%) [5, 8]: −3.4%; Tumor volume (mm^3) [5, 8]: 64.0 ± 11.9** mm^3 |
| COc1cc(N2CCC3(CCN(CC4(C#N)CC4)CC3)CC2)c(-c2cnn(C)c2)cc1Nc1ncc(Br)c(Nc2ccc3nccnc3c2P(C)(C)=O)n1 [compound 244, 1-((9-(4-((5-Bromo-4-((5-(dimethylphosphoryl)quinoxalin-6-yl)amino)pyrimidin-2-yl)amino)-5-methoxy-2-(1-methyl-1H-pyrazol-4-yl)phenyl)-3,9-diazaspiro[5.5]undecan-3-yl)methyl)cyclopropane-1-carbonitrile] | 2.43 nM | 0.78 nM | 1.19 nM | 125 nM | 2.74 nM |  |
| COc1cc(N2CCC3(CCN(CC(F)(F)F)CC3)CC2)c(-c2cnn(C)c2)cc1Nc1ncc(Br)c(Nc2ccc3nccnc3c2P(C)(C)=O)n1 [compound 245] | 11.6 nM | 2.8 nM | 5.35 nM | 747 nM | 105 nM |  |
| COc1cc(N2CCC3(CC2)CCN(C(C)CF)CC3)c(-c2cnn(C)c2)cc1Nc1ncc(Br)c(Nc2ccc3nccnc3c2P(C)(C)=O)n1 (stereo not drawn) [compound 246] | 3.64 nM | 0.4 nM | 2.59 nM | 128 nM | 1.05 nM |  |
| COc1cc(N2CC3CN(CCF)CC3C2)c(-c2cnn(C)c2)cc1Nc1ncc(Br)c(Nc2ccc3nccnc3c2P(C)(C)=O)n1 (stereo not drawn) [compound 247, (6-((5-Bromo-2-((4-(5-(2-fluoroethyl)hexahydropyrrolo[3,4-c]pyrrol-2(1H)-yl)-2-methoxy-5-(1-methyl-1H-pyrazol-4-yl)phenyl)amino)pyrimidin-4-yl)amino)quinoxalin-5-yl)dimethylphosphine oxide] | 7.76 nM | 0.12 nM | 3.76 nM | 66.4 nM | 5.81 nM |  |
| COc1cc(N2CCC3(CC2)CCN(C2COC2)CC3)c(-c2cnn(C)c2)cc1Nc1ncc(Br)c(Nc2ccc3nccnc3c2P(C)(C)=O)n1 [compound 248] | 2.37 nM | 0.29 nM | 1.17 nM | 84.7 nM | 1.91 nM |  |
| COc1nc(N2CCC3(CCN(CCF)CC3)CC2)c(-c2cnn(C)c2)cc1Nc1ncc(Br)c(Nc2ccc3nccnc3c2P(C)(C)=O)n1 [compound 249] | 8.95 nM | 0.4 nM | 2.55 nM | 85 nM | 3.31 nM |  |
